Data set [1] has as its target Beta-1 adrenergic receptor (Homo sapiens) (UniProt P08588). Conditions: Compound concentration 10.0 uM; call rule not given here.
For data set [2], the target named is Sodium-dependent dopamine transporter (Homo sapiens, UniProt Q01959). Put plainly: GPCRScan assay: inhibition of DAT. Also noted: radioligand conc. used [nm] 3.6 – 16.0, parental cells stable HEK.
The target of data set [3] is cGMP-dependent 3',5'-cyclic phosphodiesterase (Homo sapiens) (UniProt O00408). Kind of data set: PDE2A1 Cerep selectivity data (BI). As to conditions: Compound concentration 20.0 uM.
Data set [4] concerns the target P2Y purinoceptor 1 (Rattus norvegicus) (UniProt P49651). Put plainly: P2Y/RAT Eurofins-Panlabs selectivity data (BI). As to conditions: Compound concentration 10.0 uM.
In data set [5] the target is Macrophage colony-stimulating factor 1 receptor (Homo sapiens) (UniProt P07333). Put plainly: CSF1R Invitrogen selectivity data (BI). As to conditions: Compound concentration 3.0 uM.
The target in data set [6] is D(1A) dopamine receptor (Homo sapiens) (UniProt P21728). Kind of data set: D1/H Cerep selectivity data (BI). Conditions: filed as antagonist, Compound concentration 20.0 uM.
Sequence of D(1A) dopamine receptor (Homo sapiens) (P21728 whole entry): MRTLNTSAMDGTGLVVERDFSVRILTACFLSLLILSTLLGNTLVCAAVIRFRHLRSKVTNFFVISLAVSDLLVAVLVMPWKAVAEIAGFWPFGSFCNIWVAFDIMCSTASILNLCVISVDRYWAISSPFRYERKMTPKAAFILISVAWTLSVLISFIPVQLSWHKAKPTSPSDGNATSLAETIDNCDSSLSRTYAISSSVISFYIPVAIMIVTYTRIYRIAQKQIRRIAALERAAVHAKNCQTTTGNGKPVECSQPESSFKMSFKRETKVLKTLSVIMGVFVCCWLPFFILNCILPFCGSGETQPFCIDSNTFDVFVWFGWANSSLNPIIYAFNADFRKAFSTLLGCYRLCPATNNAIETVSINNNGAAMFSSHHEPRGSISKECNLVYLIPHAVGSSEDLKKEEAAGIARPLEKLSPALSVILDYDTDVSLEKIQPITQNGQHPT
The target in data set [7] is Vascular endothelial growth factor receptor 2 (Homo sapiens) (UniProt P35968). Put plainly: KDR Invitrogen selectivity data (BI). Conditions: Compound concentration 3.0 uM.
The target of data set [8] is Glutamate receptor ionotropic, NMDA 2A (Rattus norvegicus) (UniProt Q00959). Kind of data set: NMDA/R Cerep selectivity data (BI). Conditions: Compound concentration 20.0 uM.
In data set [9] the test system is Cricetinae. Kind of data set: ML2(MT3) Cerep selectivity data (BI). As to conditions: Compound concentration 20.0 uM.
The target in data set [10] is Apelin receptor (Homo sapiens) (UniProt P35414). Put plainly: APJH_AGON Cerep selectivity data (BI). As to conditions: filed as agonist, Compound concentration 20.0 uM.
The target of data set [11] is Ephrin type-A receptor 7 (Homo sapiens) (UniProt Q15375). Put plainly: EPHA7 Invitrogen selectivity data (BI). Conditions: Compound concentration 3.0 uM.
Sequence of Ephrin type-A receptor 7 (Homo sapiens) (Q15375 28-998 limits assumed): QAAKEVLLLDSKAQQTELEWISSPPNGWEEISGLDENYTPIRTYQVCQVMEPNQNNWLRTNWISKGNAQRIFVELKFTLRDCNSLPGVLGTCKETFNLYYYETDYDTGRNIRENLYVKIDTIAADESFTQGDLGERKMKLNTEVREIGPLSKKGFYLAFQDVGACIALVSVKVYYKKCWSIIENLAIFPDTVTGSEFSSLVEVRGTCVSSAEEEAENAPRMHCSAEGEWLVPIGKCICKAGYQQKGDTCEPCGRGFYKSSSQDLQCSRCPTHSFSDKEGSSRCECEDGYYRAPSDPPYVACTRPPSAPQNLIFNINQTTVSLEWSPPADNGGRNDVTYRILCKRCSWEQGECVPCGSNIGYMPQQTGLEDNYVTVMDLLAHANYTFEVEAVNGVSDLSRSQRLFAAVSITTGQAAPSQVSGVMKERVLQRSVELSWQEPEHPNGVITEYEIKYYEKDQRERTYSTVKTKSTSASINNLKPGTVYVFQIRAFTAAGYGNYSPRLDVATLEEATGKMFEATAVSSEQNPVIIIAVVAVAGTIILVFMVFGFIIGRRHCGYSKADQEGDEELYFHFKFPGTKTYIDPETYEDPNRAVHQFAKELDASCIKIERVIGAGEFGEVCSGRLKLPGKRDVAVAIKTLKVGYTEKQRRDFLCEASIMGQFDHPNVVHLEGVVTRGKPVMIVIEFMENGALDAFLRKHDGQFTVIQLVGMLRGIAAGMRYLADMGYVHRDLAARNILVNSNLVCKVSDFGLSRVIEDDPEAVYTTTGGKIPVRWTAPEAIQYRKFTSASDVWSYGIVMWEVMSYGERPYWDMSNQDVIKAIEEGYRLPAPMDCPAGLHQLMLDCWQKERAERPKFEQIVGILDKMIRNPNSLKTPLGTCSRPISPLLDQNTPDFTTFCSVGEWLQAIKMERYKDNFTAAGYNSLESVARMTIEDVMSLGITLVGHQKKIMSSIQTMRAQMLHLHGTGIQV
Data set [12] has as its target T1, Beta-adrenergic receptor kinase 1 (Homo sapiens) (UniProt P25098).
T1 sequence (whole entry): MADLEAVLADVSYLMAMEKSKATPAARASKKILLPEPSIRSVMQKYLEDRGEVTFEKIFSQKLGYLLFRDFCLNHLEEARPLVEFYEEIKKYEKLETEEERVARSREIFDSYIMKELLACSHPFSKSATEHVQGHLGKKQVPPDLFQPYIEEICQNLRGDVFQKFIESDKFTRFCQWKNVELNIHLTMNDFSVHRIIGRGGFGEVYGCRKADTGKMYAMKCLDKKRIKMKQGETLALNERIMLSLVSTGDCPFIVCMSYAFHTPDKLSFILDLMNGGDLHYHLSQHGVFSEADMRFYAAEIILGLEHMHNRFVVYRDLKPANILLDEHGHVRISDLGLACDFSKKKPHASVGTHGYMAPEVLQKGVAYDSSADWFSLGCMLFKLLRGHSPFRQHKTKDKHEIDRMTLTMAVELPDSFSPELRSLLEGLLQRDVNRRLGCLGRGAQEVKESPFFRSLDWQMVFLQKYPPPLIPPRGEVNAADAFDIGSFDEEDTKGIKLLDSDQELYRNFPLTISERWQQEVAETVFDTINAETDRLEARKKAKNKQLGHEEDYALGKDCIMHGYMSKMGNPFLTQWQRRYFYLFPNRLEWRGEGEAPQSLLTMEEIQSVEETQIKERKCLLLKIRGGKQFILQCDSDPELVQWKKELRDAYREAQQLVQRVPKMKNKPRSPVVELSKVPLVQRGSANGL
Put plainly: ADRBK1 Invitrogen selectivity data (BI). As to conditions: Compound concentration 3.0 uM.

Data set [13] deals with Fibroblast growth factor receptor 2 (Homo sapiens) (UniProt P21802). Kind of data set: FGFR2 Invitrogen selectivity data (BI). Conditions: Compound concentration 3.0 uM.
Sequence of Fibroblast growth factor receptor 2 (Homo sapiens) (P21802 22-821 limits assumed): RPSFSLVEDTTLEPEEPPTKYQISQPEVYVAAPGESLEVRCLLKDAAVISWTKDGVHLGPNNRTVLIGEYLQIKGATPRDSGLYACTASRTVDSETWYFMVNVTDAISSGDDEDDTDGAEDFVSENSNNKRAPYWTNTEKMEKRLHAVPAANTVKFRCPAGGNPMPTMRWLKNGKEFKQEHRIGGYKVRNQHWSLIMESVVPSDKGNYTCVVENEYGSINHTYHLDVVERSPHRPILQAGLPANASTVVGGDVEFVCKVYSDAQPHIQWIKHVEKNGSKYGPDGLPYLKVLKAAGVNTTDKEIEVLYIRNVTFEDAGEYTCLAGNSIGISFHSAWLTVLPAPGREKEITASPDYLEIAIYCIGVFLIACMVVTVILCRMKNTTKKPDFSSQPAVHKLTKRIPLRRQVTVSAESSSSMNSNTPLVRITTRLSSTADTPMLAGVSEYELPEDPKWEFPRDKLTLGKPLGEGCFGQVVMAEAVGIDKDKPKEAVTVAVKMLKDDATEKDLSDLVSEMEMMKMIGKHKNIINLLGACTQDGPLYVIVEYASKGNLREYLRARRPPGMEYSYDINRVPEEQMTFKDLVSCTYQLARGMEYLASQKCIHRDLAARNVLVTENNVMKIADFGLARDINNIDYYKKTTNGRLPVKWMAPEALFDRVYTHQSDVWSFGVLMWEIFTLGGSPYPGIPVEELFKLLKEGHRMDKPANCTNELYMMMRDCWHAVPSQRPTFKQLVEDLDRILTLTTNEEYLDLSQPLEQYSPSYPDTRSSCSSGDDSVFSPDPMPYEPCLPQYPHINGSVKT
Data set [14] addresses L-type Ca2+ channel (verapamil site), Cav1.2 alpha-1C (Rattus norvegicus, UniProt P22002). Put plainly: CA+/VERSI/R Cerep selectivity data (BI). Also noted: mode of action inhibitor. Conditions: rat brain, probe [3H](-)D888, compound concentration 20 uM, read-out: % Ctrl.
Data set [15] addresses G protein-coupled receptor kinase 6 (Homo sapiens) (UniProt P43250). Kind of data set: GRK6 Invitrogen selectivity data (BI). As to conditions: Compound concentration 3.0 uM.
In data set [16] the test system is T2, Receptor-type tyrosine-protein kinase FLT3 (Homo sapiens), P36888 [D835Y].
T2 sequence (whole entry): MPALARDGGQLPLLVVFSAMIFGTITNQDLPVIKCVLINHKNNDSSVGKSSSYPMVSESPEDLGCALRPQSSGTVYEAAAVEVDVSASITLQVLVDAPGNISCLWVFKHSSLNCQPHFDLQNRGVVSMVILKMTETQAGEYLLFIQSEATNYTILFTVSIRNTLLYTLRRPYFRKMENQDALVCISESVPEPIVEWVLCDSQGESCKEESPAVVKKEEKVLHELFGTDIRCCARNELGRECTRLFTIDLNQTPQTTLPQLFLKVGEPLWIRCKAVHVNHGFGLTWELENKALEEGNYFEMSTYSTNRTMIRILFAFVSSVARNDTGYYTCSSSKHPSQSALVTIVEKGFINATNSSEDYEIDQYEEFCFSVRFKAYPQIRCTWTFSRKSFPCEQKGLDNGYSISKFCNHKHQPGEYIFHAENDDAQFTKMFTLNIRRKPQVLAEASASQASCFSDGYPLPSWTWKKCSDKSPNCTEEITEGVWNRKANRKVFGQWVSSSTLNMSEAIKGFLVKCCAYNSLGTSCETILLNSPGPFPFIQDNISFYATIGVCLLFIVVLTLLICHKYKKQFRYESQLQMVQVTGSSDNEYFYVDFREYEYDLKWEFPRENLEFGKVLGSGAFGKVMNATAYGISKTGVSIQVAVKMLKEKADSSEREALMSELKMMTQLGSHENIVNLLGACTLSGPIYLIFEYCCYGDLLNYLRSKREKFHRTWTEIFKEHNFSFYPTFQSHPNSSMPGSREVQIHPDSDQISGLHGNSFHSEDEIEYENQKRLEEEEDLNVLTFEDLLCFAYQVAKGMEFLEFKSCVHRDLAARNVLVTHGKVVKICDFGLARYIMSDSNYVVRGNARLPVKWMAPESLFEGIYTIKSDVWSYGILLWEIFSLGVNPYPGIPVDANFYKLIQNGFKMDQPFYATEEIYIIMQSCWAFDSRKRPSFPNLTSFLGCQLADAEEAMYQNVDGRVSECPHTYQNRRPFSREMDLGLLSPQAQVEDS
Kind of data set: FLT3 D835Y Invitrogen selectivity data (BI). Conditions: Compound concentration 3.0 uM.

Data set [17] addresses Serine/threonine-protein kinase PLK2 (Homo sapiens) (UniProt Q9NYY3). Kind of data set: PLK2 Invitrogen selectivity data (BI). Conditions: Compound concentration 3.0 uM.
The target of data set [18] is Alpha-1D adrenergic receptor (Homo sapiens) (UniProt P25100). Put plainly: ALPHA1D/H Eurofins-Panlabs selectivity data (BI). As to conditions: Compound concentration 10.0 uM.
Sequence of Alpha-1D adrenergic receptor (Homo sapiens) (P25100 whole entry): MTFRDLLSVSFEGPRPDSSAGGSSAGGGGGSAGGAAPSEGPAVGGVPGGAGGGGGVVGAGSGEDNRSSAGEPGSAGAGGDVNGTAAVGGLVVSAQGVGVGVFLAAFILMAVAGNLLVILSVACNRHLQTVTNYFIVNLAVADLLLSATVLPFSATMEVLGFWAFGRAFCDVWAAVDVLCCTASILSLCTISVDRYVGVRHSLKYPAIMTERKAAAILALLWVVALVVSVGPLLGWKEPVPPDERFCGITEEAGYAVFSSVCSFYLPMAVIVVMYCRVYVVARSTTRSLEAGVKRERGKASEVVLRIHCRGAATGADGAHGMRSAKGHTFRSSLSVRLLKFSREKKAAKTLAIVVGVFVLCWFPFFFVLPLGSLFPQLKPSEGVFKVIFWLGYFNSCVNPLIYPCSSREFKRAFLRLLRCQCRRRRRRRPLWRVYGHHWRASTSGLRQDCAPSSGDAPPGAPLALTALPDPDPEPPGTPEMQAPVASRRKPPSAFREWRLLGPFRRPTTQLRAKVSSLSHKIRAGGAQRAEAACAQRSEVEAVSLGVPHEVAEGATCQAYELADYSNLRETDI
In data set [19] the target is Serine/threonine-protein kinase SIK2 (Homo sapiens) (UniProt Q9H0K1). Kind of data set: SNF1LK2 Invitrogen selectivity data (BI). Conditions: Compound concentration 3.0 uM.
Data set [20] concerns the target Cholecystokinin receptor type A (Homo sapiens) (UniProt P32238). Kind of data set: CCKA/H Cerep selectivity data (BI). Conditions: Compound concentration 20.0 uM.
Data set [21] deals with Tyrosine-protein kinase Fyn (Homo sapiens) (UniProt P06241). Kind of data set: FYN Invitrogen selectivity data (BI). Conditions: Compound concentration 3.0 uM.
In data set [22] the test system is Platelet-derived growth factor receptor alpha (Homo sapiens), P16234 [V561D]. Kind of data set: PDGFRA V561D Invitrogen selectivity data (BI). As to conditions: Compound concentration 3.0 uM.
Sequence of Platelet-derived growth factor receptor alpha (Homo sapiens), P16234 [V561D] (P16234 whole entry V561D): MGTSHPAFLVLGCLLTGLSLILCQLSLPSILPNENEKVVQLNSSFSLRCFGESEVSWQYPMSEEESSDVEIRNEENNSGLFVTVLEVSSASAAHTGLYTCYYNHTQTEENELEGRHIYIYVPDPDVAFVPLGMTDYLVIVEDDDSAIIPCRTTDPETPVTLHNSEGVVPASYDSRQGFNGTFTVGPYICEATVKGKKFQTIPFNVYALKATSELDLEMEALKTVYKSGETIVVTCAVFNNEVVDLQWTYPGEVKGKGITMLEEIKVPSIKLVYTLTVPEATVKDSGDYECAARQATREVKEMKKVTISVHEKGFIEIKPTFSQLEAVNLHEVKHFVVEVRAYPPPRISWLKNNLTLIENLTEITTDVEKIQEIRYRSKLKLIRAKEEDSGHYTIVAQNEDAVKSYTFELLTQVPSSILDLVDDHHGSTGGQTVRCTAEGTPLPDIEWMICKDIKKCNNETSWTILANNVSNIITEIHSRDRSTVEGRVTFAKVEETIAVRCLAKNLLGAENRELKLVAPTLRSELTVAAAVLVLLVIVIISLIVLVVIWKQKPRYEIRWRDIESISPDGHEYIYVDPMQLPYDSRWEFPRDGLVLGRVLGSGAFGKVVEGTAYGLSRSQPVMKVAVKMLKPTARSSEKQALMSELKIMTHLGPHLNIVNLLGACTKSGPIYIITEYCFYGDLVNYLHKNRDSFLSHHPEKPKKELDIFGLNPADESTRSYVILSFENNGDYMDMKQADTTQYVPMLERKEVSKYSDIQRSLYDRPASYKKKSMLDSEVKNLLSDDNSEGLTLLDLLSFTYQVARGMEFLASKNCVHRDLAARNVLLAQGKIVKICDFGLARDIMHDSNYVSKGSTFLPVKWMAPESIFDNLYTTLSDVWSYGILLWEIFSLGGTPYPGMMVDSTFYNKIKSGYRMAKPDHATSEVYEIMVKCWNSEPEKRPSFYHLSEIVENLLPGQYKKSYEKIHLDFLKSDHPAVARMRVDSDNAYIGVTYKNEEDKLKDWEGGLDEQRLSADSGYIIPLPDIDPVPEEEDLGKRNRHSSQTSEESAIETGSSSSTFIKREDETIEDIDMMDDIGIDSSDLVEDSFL

Sequence of Sodium-dependent dopamine transporter (Q01959 whole entry): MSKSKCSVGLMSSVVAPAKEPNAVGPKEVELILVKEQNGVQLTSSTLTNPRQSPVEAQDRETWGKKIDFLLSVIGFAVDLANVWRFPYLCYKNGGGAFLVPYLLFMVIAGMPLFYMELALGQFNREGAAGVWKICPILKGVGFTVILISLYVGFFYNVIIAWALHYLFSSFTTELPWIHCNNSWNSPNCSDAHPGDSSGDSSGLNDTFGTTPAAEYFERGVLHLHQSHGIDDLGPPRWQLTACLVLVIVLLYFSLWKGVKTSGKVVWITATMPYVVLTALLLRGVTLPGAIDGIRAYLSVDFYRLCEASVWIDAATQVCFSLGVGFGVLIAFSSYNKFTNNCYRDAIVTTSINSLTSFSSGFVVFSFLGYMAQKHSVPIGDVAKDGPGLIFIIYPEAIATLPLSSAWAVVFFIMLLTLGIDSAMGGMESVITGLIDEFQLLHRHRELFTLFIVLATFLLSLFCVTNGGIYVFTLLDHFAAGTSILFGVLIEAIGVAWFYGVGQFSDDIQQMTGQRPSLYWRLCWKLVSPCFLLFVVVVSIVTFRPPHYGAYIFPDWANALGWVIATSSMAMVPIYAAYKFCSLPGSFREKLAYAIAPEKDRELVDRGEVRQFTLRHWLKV
Sequence of Beta-1 adrenergic receptor (Homo sapiens) (P08588 whole entry, looked up): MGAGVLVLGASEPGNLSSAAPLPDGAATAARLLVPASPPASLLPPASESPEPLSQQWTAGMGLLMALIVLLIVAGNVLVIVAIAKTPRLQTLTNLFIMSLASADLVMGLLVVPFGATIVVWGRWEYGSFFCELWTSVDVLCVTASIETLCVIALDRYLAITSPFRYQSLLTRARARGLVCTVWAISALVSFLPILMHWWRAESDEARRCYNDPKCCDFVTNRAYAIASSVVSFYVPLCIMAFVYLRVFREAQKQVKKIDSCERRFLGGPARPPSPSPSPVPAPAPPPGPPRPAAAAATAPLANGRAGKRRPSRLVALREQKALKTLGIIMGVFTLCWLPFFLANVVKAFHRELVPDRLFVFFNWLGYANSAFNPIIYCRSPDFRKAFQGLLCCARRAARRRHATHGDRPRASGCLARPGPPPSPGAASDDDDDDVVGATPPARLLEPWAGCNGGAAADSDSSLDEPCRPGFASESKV

By inhibition is commonly meant the drop in the measured response relative to a control, in per cent. As to `CN(C)C(=O)Cn1cc(-c2nc(C3(c4ccc(-c5cnc(N)nc5)cc4)CC3)no2)cn1` [BI 0153], in data set [1], the inhibition was 7.58%. The Ki in data set [2] (read-out: Ki) is 855 nM; in data set [2] (read-out: pKi (converted)), 794 nM.
Regarding `CN(C)C(=O)Cn1cc(-c2nc([C@@](C)(c3ccc(-c4cnc(N)nc4)cc3)C3CC3)no2)cn1` [BI 665915], the residual activity was 97% in data set [3]; 95% in data set [4]; 73% in data set [5]; 98% in data set [6]; 90.5% in [7]; 90% in [8]. The residual activity is 70% in data set [9]; 101% in data set [10]; 78% in [11]; 98.5% in [12]; 89% in [13]; 102% in [15]. For the same compound, the residual activity was 79% in data set [16]; 90% in data set [17]; 107% in data set [18]; 97.5% in data set [19]; 113% in data set [20]; 96.5% in data set [21]. Moreover, the residual activity in data set [22] is 85%. Further, the activity at 20 µM in [14] is recorded as 90% (not active).
